The source of these data is BindingDB's records for doi:10.1016/s0960-894x(02)00602-9 (Bayer, 2002).

One assay is described as follows: Concentration required to inhibit human recombinant Poly (ADP-ribose) polymerase 1 was determined using cell protection assay.
In general, EC50 refers to the concentration needed to bring the measured effect to its halfway point. With `O=C(CCn1c2c(c(=O)[nH]c1=O)CSCC2)NCC(=O)c1ccc2ccccc2c1` [3-(2,4-Dioxo-3,4,7,8-tetrahydro-2H,5H-thiopyrano[4,3-d]pyrimidin-1-yl)-N-(2-naphthalen-2-yl-2-oxo-ethyl)-propionamide], the half-maximal effective concentration (EC50) is 80 nM.
The same measure, in the same setting: under `O=C(CCn1c2c(c(=O)[nH]c1=O)CSCC2)NCC(=O)N1CCN(c2ccccn2)CC1` [3-(2,4-Dioxo-3,4,7,8-tetrahydro-2H,5H-thiopyrano[4,3-d]pyrimidin-1-yl)-N-[2-oxo-2-(4-pyridin-2-yl-piperazin-1-yl)-ethyl]-propionamide] stands 100 nM; under `O=C(CCn1c2c(c(=O)[nH]c1=O)CSCC2)NCC(=O)N1CCN(c2cc(C(F)(F)F)ccn2)CC1` [3-(2,4-Dioxo-3,4,7,8-tetrahydro-2H,5H-thiopyrano[4,3-d]pyrimidin-1-yl)-N-{2-oxo-2-[4-(4-trifluoromethyl-pyridin-2-yl)-piperazin-1-yl]-ethyl}-propionamide], 100 nM; under `Nc1cccc(-c2ccc(C(=O)CNC(=O)CCn3c4c(c(=O)[nH]c3=O)CSCC4)cc2)c1` [N-[2-(3'-Amino-biphenyl-4-yl)-2-oxo-ethyl]-3-(2,4-dioxo-3,4,7,8-tetrahydro-2H,5H-thiopyrano[4,3-d]pyrimidin-1-yl)-propionamide], 70 nM.
Still for that read-out and setting: under `O=C(CCn1c2c(c(=O)[nH]c1=O)CSCC2)NCC(=O)c1ccc(Cl)cc1` [N-[2-(4-Chloro-phenyl)-2-oxo-ethyl]-3-(2,4-dioxo-3,4,7,8-tetrahydro-2H,5H-thiopyrano[4,3-d]pyrimidin-1-yl)-propionamide] stands 500 nM; under `Nc1cccnc1N1CCN(C(=O)CNC(=O)CCn2c3c(c(=O)[nH]c2=O)CSCC3)CC1` [N-{2-[4-(3-Amino-pyridin-2-yl)-piperazin-1-yl]-2-oxo-ethyl}-3-(2,4-dioxo-3,4,7,8-tetrahydro-2H,5H-thiopyrano[4,3-d]pyrimidin-1-yl)-propionamide], 700 nM.

Another assay can be described thus: Concentration required to inhibit human recombinant PARP-1 was determined using cell protection assay.
For `O=C(CCn1c2c(c(=O)[nH]c1=O)CSCC2)NCC(=O)N1CCN(c2ncccc2C(F)(F)F)CC1` [3-(2,4-Dioxo-3,4,7,8-tetrahydro-2H,5H-thiopyrano[4,3-d]pyrimidin-1-yl)-N-{2-oxo-2-[4-(3-trifluoromethyl-pyridin-2-yl)-piperazin-1-yl]-ethyl}-propionamide], the EC50 worked out at 100 nM.
The same measure, in the same setting: under `COc1ccc(C(=O)CNC(=O)CCn2c3c(c(=O)[nH]c2=O)CSCC3)cc1` [3-(2,4-dioxo-2,3,4,5,7,8-hexahydro-1H-thiopyrano[4,3-d]pyrimidin-1-yl)-N-(2-(4-methoxyphenyl)-2-oxoethyl)propanamide] stands 80 nM; under `O=C(CCn1c2c(c(=O)[nH]c1=O)CSCC2)NCC(=O)c1ccc(-c2ccccc2)cc1` [N-(2-Biphenyl-4-yl-2-oxo-ethyl)-3-(2,4-dioxo-3,4,7,8-tetrahydro-2H,5H-thiopyrano[4,3-d]pyrimidin-1-yl)-propionamide], 500 nM.
Still for that read-out and setting: under `O=C(CCn1c2c(c(=O)[nH]c1=O)CSCC2)NCC(=O)c1cccc(Br)c1` [N-[2-(3-Bromo-phenyl)-2-oxo-ethyl]-3-(2,4-dioxo-3,4,7,8-tetrahydro-2H,5H-thiopyrano[4,3-d]pyrimidin-1-yl)-propionamide] stands 3500 nM; under `O=C(CCn1c2c(c(=O)[nH]c1=O)CSCC2)NCC(=O)c1ccc(OC(F)F)cc1` [N-[2-(4-Difluoromethoxy-phenyl)-2-oxo-ethyl]-3-(2,4-dioxo-3,4,7,8-tetrahydro-2H,5H-thiopyrano[4,3-d]pyrimidin-1-yl)-propionamide], 200 nM.

A short description of the next assay: Concentration required to inhibit human recombinant Poly (ADP-ribose) polymerase 1 was determined using cell protection assay. The source holds these as a separate data set.
For the molecule `O=C(CCn1c2c(c(=O)[nH]c1=O)CSCC2)NCC(=O)N1CCN(c2ccccc2)CC1` [3-(2,4-Dioxo-3,4,7,8-tetrahydro-2H,5H-thiopyrano[4,3-d]pyrimidin-1-yl)-N-[2-oxo-2-(4-phenyl-piperazin-1-yl)-ethyl]-propionamide], the EC50 is 100 nM.
